For 16 compounds, IC50 results are on record in patent US9321776B2, “Isochromene derivatives as phoshoinositide 3-kinases inhibitors” (CHIESI FARMACEUTICI S.p.A., priority 2013, dated 2016).

Counter-ions that a name gives are not always drawn. A value given as a limit tells only on which side of the number the result lay.

Common to all, as to test: PI3K enzyme inhibitory activity in the cell free assay (ADP-Glo Kinase Assay)
What all share (assay type): biochemical
(ADP-Glo turns the ADP formed in a reaction into a luminescent signal.)

In one assay the target is T1, PI3Kα (Homo sapiens, UniProt P42336).
T1 construct: purchased Millipore Ltd (Billerica, Mass.)
Conditions: human recombinant PI3Kα, ATP 50 μM; read-out: PI3K alpha inhibition.

The target in the next assay is T2, PI3Kβ (Homo sapiens, UniProt P42338).
T2 construct: purchased Millipore Ltd (Billerica, Mass.)
The settings on record: human recombinant PI3Kβ, ATP 100 μM; read-out: PI3K beta inhibition.

In a further assay the target is T3, PI3Kγ (Homo sapiens, UniProt P48736).
T3 construct: purchased Millipore Ltd (Billerica, Mass.)
Conditions: human recombinant PI3Kγ, ATP 30 μM; read-out: PI3K gamma inhibition.

A further assay concerns the target T4, PI3Kδ (Homo sapiens, UniProt O00329).
T4 construct: purchased Millipore Ltd (Billerica, Mass.)
T4 sequence (O00329 1-1044): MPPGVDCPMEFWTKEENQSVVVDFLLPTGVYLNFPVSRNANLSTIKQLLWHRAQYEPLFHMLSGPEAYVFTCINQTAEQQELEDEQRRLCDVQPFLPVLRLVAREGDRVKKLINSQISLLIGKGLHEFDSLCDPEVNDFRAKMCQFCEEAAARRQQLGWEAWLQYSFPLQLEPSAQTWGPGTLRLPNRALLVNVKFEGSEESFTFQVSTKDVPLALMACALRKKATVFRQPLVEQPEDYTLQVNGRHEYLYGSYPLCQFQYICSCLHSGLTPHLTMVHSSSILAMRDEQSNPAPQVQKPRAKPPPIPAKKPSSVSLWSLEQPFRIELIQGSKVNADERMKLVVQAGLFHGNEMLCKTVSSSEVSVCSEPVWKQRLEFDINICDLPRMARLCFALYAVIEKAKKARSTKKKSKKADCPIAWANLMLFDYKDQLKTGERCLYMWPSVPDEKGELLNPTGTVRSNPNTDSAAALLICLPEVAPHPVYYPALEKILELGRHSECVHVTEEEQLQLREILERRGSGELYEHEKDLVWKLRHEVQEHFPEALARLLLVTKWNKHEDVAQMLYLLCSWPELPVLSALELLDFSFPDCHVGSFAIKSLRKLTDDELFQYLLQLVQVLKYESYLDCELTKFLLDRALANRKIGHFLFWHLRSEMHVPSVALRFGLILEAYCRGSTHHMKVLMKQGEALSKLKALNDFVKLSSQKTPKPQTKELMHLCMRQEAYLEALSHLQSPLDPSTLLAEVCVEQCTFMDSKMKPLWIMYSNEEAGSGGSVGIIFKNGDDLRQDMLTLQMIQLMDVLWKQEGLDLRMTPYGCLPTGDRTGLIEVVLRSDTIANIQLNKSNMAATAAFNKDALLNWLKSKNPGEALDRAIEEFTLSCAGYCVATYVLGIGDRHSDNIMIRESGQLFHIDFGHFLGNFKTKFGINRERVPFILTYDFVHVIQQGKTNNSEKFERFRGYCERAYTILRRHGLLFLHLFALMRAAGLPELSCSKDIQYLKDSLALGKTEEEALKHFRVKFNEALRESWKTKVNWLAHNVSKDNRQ
Conditions: human recombinant PI3Kδ, ATP 80 μM; read-out: PI3K delta inhibition.

T1 sequence (P42336 whole entry): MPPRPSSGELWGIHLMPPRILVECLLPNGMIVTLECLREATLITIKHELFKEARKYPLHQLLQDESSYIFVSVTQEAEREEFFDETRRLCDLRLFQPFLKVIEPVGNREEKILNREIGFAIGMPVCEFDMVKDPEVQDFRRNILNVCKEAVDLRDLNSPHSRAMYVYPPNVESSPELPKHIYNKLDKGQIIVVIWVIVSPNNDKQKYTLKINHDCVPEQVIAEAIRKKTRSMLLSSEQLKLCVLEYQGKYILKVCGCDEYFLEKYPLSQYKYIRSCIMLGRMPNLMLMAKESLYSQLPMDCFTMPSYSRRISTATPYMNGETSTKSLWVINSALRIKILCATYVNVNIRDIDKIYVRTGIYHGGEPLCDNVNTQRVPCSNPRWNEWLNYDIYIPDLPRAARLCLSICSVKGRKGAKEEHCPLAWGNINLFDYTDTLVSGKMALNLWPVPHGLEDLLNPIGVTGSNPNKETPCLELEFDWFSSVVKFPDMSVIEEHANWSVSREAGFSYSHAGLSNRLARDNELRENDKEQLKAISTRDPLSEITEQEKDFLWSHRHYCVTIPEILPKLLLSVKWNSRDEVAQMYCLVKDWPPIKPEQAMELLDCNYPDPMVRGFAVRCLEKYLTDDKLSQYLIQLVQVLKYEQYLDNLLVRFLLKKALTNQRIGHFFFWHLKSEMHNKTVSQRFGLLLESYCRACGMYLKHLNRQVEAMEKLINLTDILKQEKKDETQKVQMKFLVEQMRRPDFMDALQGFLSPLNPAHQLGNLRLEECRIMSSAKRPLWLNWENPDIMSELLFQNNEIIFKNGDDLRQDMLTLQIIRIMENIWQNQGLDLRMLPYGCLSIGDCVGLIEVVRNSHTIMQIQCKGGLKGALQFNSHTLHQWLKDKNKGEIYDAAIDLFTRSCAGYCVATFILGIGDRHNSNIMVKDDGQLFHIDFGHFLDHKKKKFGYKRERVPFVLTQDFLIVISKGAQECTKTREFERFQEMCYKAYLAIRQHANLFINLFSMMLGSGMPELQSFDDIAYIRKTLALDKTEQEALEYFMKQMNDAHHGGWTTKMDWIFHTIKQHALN
T3 sequence (P48736 whole entry): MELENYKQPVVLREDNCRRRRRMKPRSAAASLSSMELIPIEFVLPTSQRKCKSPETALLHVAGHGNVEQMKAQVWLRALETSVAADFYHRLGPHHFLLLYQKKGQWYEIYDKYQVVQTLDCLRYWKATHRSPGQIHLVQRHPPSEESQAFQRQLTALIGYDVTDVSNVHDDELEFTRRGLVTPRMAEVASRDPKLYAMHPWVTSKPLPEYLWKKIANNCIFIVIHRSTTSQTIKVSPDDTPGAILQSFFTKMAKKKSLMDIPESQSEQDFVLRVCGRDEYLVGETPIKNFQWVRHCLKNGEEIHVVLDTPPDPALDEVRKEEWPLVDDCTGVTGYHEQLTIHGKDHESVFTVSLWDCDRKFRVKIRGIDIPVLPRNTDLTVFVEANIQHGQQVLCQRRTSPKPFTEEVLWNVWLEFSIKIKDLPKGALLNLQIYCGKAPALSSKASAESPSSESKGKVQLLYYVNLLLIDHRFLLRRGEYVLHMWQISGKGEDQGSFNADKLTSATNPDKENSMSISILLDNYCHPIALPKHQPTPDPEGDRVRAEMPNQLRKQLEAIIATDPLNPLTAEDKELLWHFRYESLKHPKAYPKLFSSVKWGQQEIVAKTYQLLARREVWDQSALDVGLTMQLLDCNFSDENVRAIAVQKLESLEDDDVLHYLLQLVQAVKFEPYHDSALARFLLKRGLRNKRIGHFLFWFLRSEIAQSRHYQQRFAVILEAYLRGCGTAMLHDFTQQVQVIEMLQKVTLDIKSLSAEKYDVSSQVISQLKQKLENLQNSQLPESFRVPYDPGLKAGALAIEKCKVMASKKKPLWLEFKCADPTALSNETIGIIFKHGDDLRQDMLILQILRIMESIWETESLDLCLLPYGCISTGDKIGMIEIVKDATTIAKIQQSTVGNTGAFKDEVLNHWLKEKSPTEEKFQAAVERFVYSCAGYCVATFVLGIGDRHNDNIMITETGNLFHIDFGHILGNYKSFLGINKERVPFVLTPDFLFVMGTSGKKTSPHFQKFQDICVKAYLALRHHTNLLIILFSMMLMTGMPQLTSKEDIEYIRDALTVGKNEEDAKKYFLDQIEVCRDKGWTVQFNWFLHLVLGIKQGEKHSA
T2 sequence (P42338 whole entry): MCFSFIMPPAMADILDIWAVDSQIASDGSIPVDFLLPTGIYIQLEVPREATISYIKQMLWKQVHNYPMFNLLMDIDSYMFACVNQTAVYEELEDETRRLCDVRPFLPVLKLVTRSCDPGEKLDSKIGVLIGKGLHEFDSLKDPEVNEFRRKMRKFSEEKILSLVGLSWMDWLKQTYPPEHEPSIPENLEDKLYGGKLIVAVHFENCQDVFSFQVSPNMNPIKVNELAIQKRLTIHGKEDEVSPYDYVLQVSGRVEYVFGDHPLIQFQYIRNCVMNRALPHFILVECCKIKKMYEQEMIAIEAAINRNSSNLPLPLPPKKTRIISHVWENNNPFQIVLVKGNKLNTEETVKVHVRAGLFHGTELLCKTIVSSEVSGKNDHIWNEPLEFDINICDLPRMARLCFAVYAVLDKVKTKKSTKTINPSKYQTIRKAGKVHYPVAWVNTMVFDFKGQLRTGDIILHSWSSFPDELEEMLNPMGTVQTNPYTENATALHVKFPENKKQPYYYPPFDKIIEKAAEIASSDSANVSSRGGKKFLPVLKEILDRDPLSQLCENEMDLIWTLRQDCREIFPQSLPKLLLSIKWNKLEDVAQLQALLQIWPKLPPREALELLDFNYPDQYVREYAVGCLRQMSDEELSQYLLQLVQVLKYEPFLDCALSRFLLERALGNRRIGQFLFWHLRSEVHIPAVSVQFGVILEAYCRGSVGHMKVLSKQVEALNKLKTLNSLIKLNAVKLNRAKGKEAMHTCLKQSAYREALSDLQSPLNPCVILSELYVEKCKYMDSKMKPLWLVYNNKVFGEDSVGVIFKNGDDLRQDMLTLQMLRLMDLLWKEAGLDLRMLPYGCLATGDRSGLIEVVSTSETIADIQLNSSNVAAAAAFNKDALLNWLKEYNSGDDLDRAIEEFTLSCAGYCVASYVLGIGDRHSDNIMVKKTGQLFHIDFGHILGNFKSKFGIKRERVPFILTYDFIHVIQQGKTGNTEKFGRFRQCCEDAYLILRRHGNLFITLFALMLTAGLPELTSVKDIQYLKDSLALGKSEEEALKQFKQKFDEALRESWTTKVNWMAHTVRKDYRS

Take `CC(c1oc(=O)c2ccccc2c1C1=CCNCC1)n1nc(-c2cc(O)cc(Cl)c2)c2c(N)ncnc21` (stereo not shown) [Example 152, 3-(1-(4-amino-3-(3-chloro-5-hydroxyphenyl)-1H-pyrazolo[3,4-d]pyrimidin-1-yl)ethyl)-4-(1,2,3,6-tetrahydropyridin-4-yl)-1H-isochromen-1-one formate]: the IC50 on PI3Kα is 10 to 1000 nM; at PI3Kβ, 10 to 1000 nM; on PI3Kγ, 10 to 1000 nM; on PI3Kδ, less than 10 nM.

For `CC(c1oc(=O)c2ccccc2c1C1=CCNCC1)n1nc(-c2cc(O)cc(C(F)(F)F)c2)c2c(N)ncnc21` (stereo not shown) [Example 153, 3-(1-(4-amino-3-(3-hydroxy-5-(trifluoromethyl)phenyl)-1H-pyrazolo[3,4-d]pyrimidin-1-yl)ethyl)-4-(1,2,3,6-tetrahydropyridin-4-yl)-1H-isochromen-1-one formate], the IC50 was more than 1000 nM at PI3Kα, 10 to 1000 nM at PI3Kβ, more than 1000 nM on PI3Kγ and less than 10 nM on PI3Kδ.

`CC(c1oc(=O)c2ccccc2c1C1=CCN(C)CC1)n1nc(-c2cc(O)cc(Cl)c2)c2c(N)ncnc21` (stereo not shown) [Example 154, 3-(1-(4-amino-3-(3-chloro-5-hydroxyphenyl)-1H-pyrazolo[3,4-d]pyrimidin-1-yl)ethyl)-4-(1-methyl-1,2,3,6-tetrahydropyridin-4-yl)-1H-isochromen-1-one formate]: the IC50 on PI3Kα is more than 1000 nM; at PI3Kβ, 10 to 1000 nM; at PI3Kγ, more than 1000 nM; at PI3Kδ, less than 10 nM.

Regarding `CC(c1oc(=O)c2ccccc2c1C1=CCN(C)CC1)n1nc(-c2cc(O)cc(C(F)(F)F)c2)c2c(N)ncnc21` (stereo not shown) [Example 155, 3-(1-(4-amino-3-(3-hydroxy-5-(trifluoromethyl)phenyl)-1H-pyrazolo[3,4-d]pyrimidin-1-yl)ethyl)-4-(1-methyl-1,2,3,6-tetrahydropyridin-4-yl)-1H-isochromen-1-one formate], the IC50 on PI3Kα is more than 1000 nM; at PI3Kβ it was 10 to 1000 nM; on PI3Kγ, more than 1000 nM; at PI3Kδ, 10 to 1000 nM.

Turning to `CC(c1oc(=O)c2ccccc2c1C1=CCN(C2CNC2)CC1)n1nc(-c2cc(O)cc(F)c2)c2c(N)ncnc21` (stereo not shown) [Example 156, 3-(1-(4-amino-3-(3-fluoro-5-hydroxyphenyl)-1H-pyrazolo[3,4-d]pyrimidin-1-yl)ethyl)-4-(1-(azetidin-3-yl)-1,2,3,6-tetrahydropyridin-4-yl)-1H-isochromen-1-one dihydrochloride], the IC50 at PI3Kα is more than 1000 nM; on PI3Kβ, 10 to 1000 nM; on PI3Kγ, 10 to 1000 nM; on PI3Kδ it was less than 10 nM.

As to `CC(c1oc(=O)c2ccccc2c1C1=CCN(C2CN(CC3CC3)C2)CC1)n1nc(-c2cc(O)cc(F)c2)c2c(N)ncnc21` (stereo not shown) [Example 157, 3-(1-(4-amino-3-(3-fluoro-5-hydroxyphenyl)-1H-pyrazolo[3,4-d]pyrimidin-1-yl)ethyl)-4-(1-(1-(cyclopropylmethyl)azetidin-3-yl)-1,2,3,6-tetrahydropyridin-4-yl)-1H-isochromen-1-one dihydrochloride], the IC50 on PI3Kα was more than 1000 nM; on PI3Kβ it was 10 to 1000 nM; on PI3Kγ, 10 to 1000 nM; on PI3Kδ it was less than 10 nM.

On to `CC(c1oc(=O)c2ccccc2c1-c1ccccc1)n1nc(-c2cnc(C(F)(F)F)c(O)c2)c2c(N)ncnc21` (stereo not shown) [Example 161, 3-(1-(4-amino-3-(5-hydroxy-6-(trifluoromethyl)pyridin-3-yl)-1H-pyrazolo[3,4-d]pyrimidin-1-yl)ethyl)-4-phenyl-1H-isochromen-1-one], for which the IC50 is more than 1000 nM at PI3Kα, more than 1000 nM on PI3Kβ, more than 1000 nM at PI3Kγ and less than 10 nM at PI3Kδ.

As for `CC(c1oc(=O)c2ccc(Cl)cc2c1-c1ccccc1)n1nc(-c2cc(O)cc(F)c2)c2c(N)ncnc21` (stereo not shown) [Example 164, 3-(1-(4-amino-3-(3-fluoro-5-hydroxyphenyl)-1H-pyrazolo[3,4-d]pyrimidin-1-yl)ethyl)-6-chloro-4-phenyl-1H-isochromen-1-one], the IC50 at PI3Kα was more than 1000 nM; on PI3Kβ, 10 to 1000 nM; on PI3Kγ, 10 to 1000 nM; at PI3Kδ it was less than 10 nM.

On to `CC(c1oc(=O)c2ccc(F)cc2c1-c1ccccc1)n1nc(-c2cc(O)cc(F)c2)c2c(N)ncnc21` (stereo not shown) [Example 165, 3-(1-(4-amino-3-(3-fluoro-5-hydroxyphenyl)-1H-pyrazolo[3,4-d]pyrimidin-1-yl)ethyl)-6-fluoro-4-phenyl-1H-isochromen-1-one], for which the IC50 is more than 1000 nM on PI3Kα, 10 to 1000 nM at PI3Kβ, 10 to 1000 nM at PI3Kγ and less than 10 nM at PI3Kδ.

In the case of `CC(c1oc(=O)c2ccccc2c1C1=CCCN(Cc2ccccc2)C1)n1nc(-c2cc(O)cc(F)c2)c2c(N)ncnc21` (stereo not shown) [Example 169, 3-(1-(4-amino-3-(3-fluoro-5-hydroxyphenyl)-1H-pyrazolo[3,4-d]pyrimidin-1-yl)ethyl)-4-(1-benzyl-1,2,5,6-tetrahydropyridin-3-yl)-1H-isochromen-1-one hydrochloride], the IC50 on PI3Kα is more than 1000 nM; at PI3Kβ it was 10 to 1000 nM; on PI3Kγ, 10 to 1000 nM; on PI3Kδ, less than 10 nM.

On to `CC(c1oc(=O)c2ccccc2c1-c1ccccn1)n1nc(-c2cc(O)cc(F)c2)c2c(N)ncnc21` (stereo not shown) [Example 170, 3-(1-(4-amino-3-(3-fluoro-5-hydroxyphenyl)-1H-pyrazolo[3,4-d]pyrimidin-1-yl)ethyl)-4-(pyridin-2-yl)-1H-isochromen-1-one hydrochloride], for which the IC50 was 10 to 1000 nM at PI3Kα, 10 to 1000 nM at PI3Kβ, 10 to 1000 nM at PI3Kγ and less than 10 nM on PI3Kδ.

Take `CC(c1oc(=O)c2ccccc2c1C1=CCCN(C2CCN(C)CC2)C1)n1nc(-c2cc(O)cc(F)c2)c2c(N)ncnc21` (stereo not shown) [Example 172, 3-(1-(4-amino-3-(3-fluoro-5-hydroxyphenyl)-1H-pyrazolo[3,4-d]pyrimidin-1-yl)ethyl)-4-(1-(1-methylpiperidin-4-yl)-1,2,5,6-tetrahydropyridin-3-yl)-1H-isochromen-1-one dihydrochloride]: the IC50 on PI3Kα, on PI3Kβ, on PI3Kγ and at PI3Kδ was 10 to 1000 nM each time.

Take `CC(c1oc(=O)c2ccccc2c1C1=CCCN(C2CNC2)C1)n1nc(-c2cc(O)cc(F)c2)c2c(N)ncnc21` (stereo not shown) [Example 173, 3-(1-(4-amino-3-(3-fluoro-5-hydroxyphenyl)-1H-pyrazolo[3,4-d]pyrimidin-1-yl)ethyl)-4-(1-(azetidin-3-yl)-1,2,5,6-tetrahydropyridin-3-yl)-1H-isochromen-1-one dihydrochloride]: the IC50 on PI3Kα was 10 to 1000 nM; at PI3Kβ, 10 to 1000 nM; on PI3Kγ it was 10 to 1000 nM; on PI3Kδ it was less than 10 nM.

On to `CC(C)N1CCC=C(c2c(C(C)n3nc(-c4cc(O)cc(F)c4)c4c(N)ncnc43)oc(=O)c3ccccc23)C1` (stereo not shown) [Example 174, 3-(1-(4-amino-3-(3-fluoro-5-hydroxyphenyl)-1H-pyrazolo[3,4-d]pyrimidin-1-yl)ethyl)-4-(1-isopropyl-1,2,5,6-tetrahydropyridin-3-yl)-1H-isochromen-1-one hydrochloride], for which the IC50 at PI3Kα, on PI3Kβ, at PI3Kγ and at PI3Kδ was 10 to 1000 nM in each case.

As for `CC(c1oc(=O)c2ccccc2c1C1=CCN(C)CC1)n1nc(-c2cncc(O)c2)c2c(N)ncnc21` (stereo not shown) [Example 175, 3-(1-(4-amino-3-(5-hydroxypyridin-3-yl)-1H-pyrazolo[3,4-d]pyrimidin-1-yl)ethyl)-4-(1-methyl-1,2,3,6-tetrahydropyridin-4-yl)-1H-isochromen-1-one hydrochloride], the IC50 at PI3Kα is 10 to 1000 nM; at PI3Kβ, less than 10 nM; on PI3Kγ, 10 to 1000 nM; on PI3Kδ it was less than 10 nM.

Consider `CC(c1oc(=O)c2ccccc2c1-c1ccccc1)n1nc(I)c2c(N)ncnc21` (stereo not shown) [Int D2, 3-(1-(4-Amino-3-iodo-1H-pyrazolo[3,4-d]pyrimidin-1-yl)ethyl)-4-phenyl-1H-isochromen-1-one], for which the IC50 is more than 1000 nM at PI3Kα, 10 to 1000 nM at PI3Kβ, 10 to 1000 nM on PI3Kγ and less than 10 nM at PI3Kδ.
